Experimental findings from patent publication US20090186100A1, “MEDICAMENT FOR ANTI-AGING SKIN CARE AND WOUND HEALING AND USE THEREOF” (SAGITTARIUS LIFE SCIENCE CORP., priority 2008, published 2009) are described below.

Assay [1] in a line: Free radical scavenger, SOD mimetic activity (xanthine/xanthine oxidase/NBT). Format: biochemical. The following applies: 6.1 μM. The protocol: SS304L or vehicle was incubated with 0.12 mM xanthine, 6 mU xanthine oxidase, 27 μM nitroblue tetrazolium (NBT), 0.11 mM EDTA, 0.005% bovine serum albumin and Na2CO3 at pH 10.5 at 25° C. for 20 minutes. Conversion of xanthine to uric acid +O^−+NBT to formazan was then determined by measurement of absorbance at 595 nm and percent inhibition by superoxide dismutase or SS304L was calculated.

In assay [2] the test system is Human dermal fibroblasts (HFB). Kind of assay: HFB proliferation (MTT). Format: cell-based. Conditions: 72 hours; for Mean OD: MTT A570.
Procedure: Human dermal fibroblasts (HFB) were cultured from foreskin with consent by cell emigration from ˜1 mm^3 skin pieces in DMEM+1 mM sodium pyruvate+2 mM glutamine+100 U/ml penicillin+100 ug/ml streptomycin+10% fetal calf serum (FCS) (C-DMEM) under humidified atmosphere containing 5% CO2 at 37° C.
1×10^4 HFB were seeded in a 96 multi-well culture dish. 48 hours later, the cells were treated with various concentrations of SS304L in C-DMEM under humidified atmosphere containing 5% CO2 at 37° C. The cells were exposed to drugs for 72 hours, and then treated with 0.5 mg/ml MTT for 4 hours at 37° C. The reduced formazan was dissolved in isopropanol containing 0.04 N HCl, and measured at A570 nm by an ELISA reader (Molecular Device).
Another assay deals with T1, Human recombinant COX II (Homo sapiens, UniProt P35354).
T1 construct: purchased Sigma C-0858; host or cells: Sf21 insect cells
T1 sequence (P35354 18-604): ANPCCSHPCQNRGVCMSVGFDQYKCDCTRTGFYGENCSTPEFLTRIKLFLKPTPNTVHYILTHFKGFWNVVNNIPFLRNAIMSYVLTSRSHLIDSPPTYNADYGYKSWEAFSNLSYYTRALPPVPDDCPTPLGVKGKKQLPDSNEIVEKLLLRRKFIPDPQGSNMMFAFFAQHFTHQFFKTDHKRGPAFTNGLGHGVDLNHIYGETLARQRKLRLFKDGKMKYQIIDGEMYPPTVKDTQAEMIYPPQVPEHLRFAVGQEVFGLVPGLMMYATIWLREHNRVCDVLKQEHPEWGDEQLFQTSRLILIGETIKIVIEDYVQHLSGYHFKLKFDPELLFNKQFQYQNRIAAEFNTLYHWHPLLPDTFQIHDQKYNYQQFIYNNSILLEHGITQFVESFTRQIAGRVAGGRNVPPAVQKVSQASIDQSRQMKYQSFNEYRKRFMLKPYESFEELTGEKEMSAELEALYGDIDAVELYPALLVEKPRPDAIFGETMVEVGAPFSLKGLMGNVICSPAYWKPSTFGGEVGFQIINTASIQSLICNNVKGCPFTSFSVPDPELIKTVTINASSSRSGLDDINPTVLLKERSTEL
In words: Inhibition of cyclooxygenase II. The class given is biochemical. The protocol: SS304L or vehicle was […] with 0.11 U enzyme, 1 mM reduced glutathione, 500 μM phenol and 1 μM hematin in Tris-HCl, pH 7.7 at 37° C. for 15 minutes. 0.3 μM arachidonic acid as substrate was added and the reaction was terminated by addition of 1 N HCl after 5 minutes. The converted PGE2 was measured by an Amersham EIA kit following centrifugation. SS304L was assayed at 10 and 100 μg/ml.

Assay [3] has as its system full thickness excision wounds. In words: Full thickness excision wound healing in mice. The class given is in vivo, Aging male ICR mice. The protocol:
Aging male ICR mice at body weights of 40 to 50 grams (Age: 14 to 16 weeks) were lightly anesthetized with ether. 0.7 mm in diameter full thickness excisions were conducted at the dorsal back skin after shaving and 70% ethanol sterilization. Immediately after excision, the wounds were covered with either vehicle (sterile 1% carboxymethyl cellulose, 25 μl) at first wound site of all mice, and with 1% arginine, 0.1% S[…], or 1% S[…] at the second wound site. Each group contained 4 to 6 mice. The drugs were applied on the day of photography (Day 0, 1, 2, 3, 4, 7, 10, 14, 18). The areas of the wounds and the rates and qualities of healing were compared at each time point. Arginine was used as comparison due to the similarity of part of its action mechanisms to S[…].

For the compound `O=C(O[C@@H]1Cc2c(O)cc(O)cc2O[C@@H]1c1ccc(O)c(O)c1)c1cc(O)c(O)c(O)c1` [(−)-Epicatechin gallate], the “Inhibition (%)” value in assay [1] is reported as 50%.
With `C[C@]12CC[C@@H]3c4ccc(O)cc4CC[C@H]3[C@@H]1CC[C@@H]2O` [Estradiol], the “Inc. (%.)” value in assay [2] (Estradiol 1 nM) is listed as −4%; in assay [2] (Estradiol 3 nM), 4%; in assay [2] (Estradiol 10 nM), 2%; in assay [2] (Estradiol 30 nM), −3%; in assay [2] (Estradiol 100 nM) it was −4%. The “Mean OD” value in assay [2] (Estradiol 1 nM) was 0.131; in assay [2] (Estradiol 3 nM), 0.139; in assay [2] (Estradiol 10 nM) it was 0.137; in assay [2] (Estradiol 30 nM), 0.132; in assay [2] (Estradiol 100 nM), 0.131.
Take `CS(=O)(=O)Nc1ccc([N+](=O)[O-])cc1Oc1ccccc1` [Nimesulide]: at Human recombinant COX II, the inhibition at 1 µM amounted to 50%.
In the case of `N=C(N)NCCC[C@H](N)C(=O)O` [arginine], the Inflammation of wounds entry in assay [3] (day 3 post wounding, topical) is listed as “no apparent sign of inflammation”. Besides, the Re-epithelization/granulation process entry in assay [3] (day 7, topical) is recorded as “significantly facilitated”. Besides, the “Unhealed wound areas compared to the areas of the vehicle treated wounds (fraction)” value in assay [3] (day 10, applied at 1%) is “⅓ to ½”. For the same compound, in assay [3] (day 14, topical), the Healing of wounds entry is “completely healed”.
On to Vitamin A, for which the “Inc. (%)” value in assay [2] (Vitamin A 0.1 uM) is given as −7%; in assay [2] (Vitamin A 0.3 uM), −4%; in assay [2] (Vitamin A 1 uM), −4%; in assay [2] (Vitamin A 3 uM) it was −12%; in assay [2] (Vitamin A 10 uM), −6%. Besides, the “Mean OD” value in assay [2] (Vitamin A 0.1 uM) came out at 0.128; in assay [2] (Vitamin A 0.3 uM), 0.131; in assay [2] (Vitamin A 1 uM), 0.131; in assay [2] (Vitamin A 3 uM), 0.124; in assay [2] (Vitamin A 10 uM), 0.129.
On to Vitamin E, for which the “Inc. (%.)” value is given as 0% in assay [2] (Vitamin E 3 uM); 9% in assay [2] (Vitamin E 10 uM); −4% in assay [2] (Vitamin E 30 uM); −9% in assay [2] (Vitamin E 100 uM); −16% in assay [2] (Vitamin E 300 uM). The “Mean OD” value in assay [2] (Vitamin E 3 uM) was determined as 0.135; in assay [2] (Vitamin E 10 uM), 0.144; in assay [2] (Vitamin E 30 uM), 0.131; in assay [2] (Vitamin E 100 uM) it was 0.126; in assay [2] (Vitamin E 300 uM), 0.120.

For orientation: inhibition means the relative decrease from the control value, in per cent.
